Experimental data: the NIST ThermoML archive (doi:10.1016/j.fluid.2007.05.026)
Numbers after ± are expanded uncertainties.

Columns and labels:
[1] = for mass density: 101.33 kPa, Vibrating tube method; for Normal melting temperature: visual observation
[2] = refractive index (Na D-line) (dimensionless); conditions: 101.33 kPa, Liquid, Standard Abbe refractometry

| mass density ([1]; 314.45 K, Liquid) [kg/m3] | Normal melting temperature ([1]; Crystal) [°C] | refractive index ([2]; 314.45 K) | mass density ([1]; 298.15 K, Crystal) [kg/m3] | SMILES | mass density ([1]; 298.15 K, Liquid) [kg/m3] | Normal boiling temperature ([1]; Liquid, Manometric method) [°C] | refractive index ([2]; 298.15 K) |
| --- | --- | --- | --- | --- | --- | --- | --- |
| 1061 ± 1 | 41.30 ± 0.5 | 1.5425 ± 0.0007 | – | Oc1ccccc1 [phenol] | – | – | – |
| – | – | – | – | CC(=O)CC(C)C [4-methylpentan-2-one] | 799.8 ± 0.3 | 117.60 ± 0.1 | 1.396 ± 0.0008 |
| – | 171.40 ± 0.5 | – | 1338 ± 2 | Oc1ccc(O)cc1 [1,4-benzenediol] | – | – | – |
